Consider five compounds from patent publication US20180162825A1, “NOVEL DGAT2 INHIBITORS” (Eli Lilly and Company, priority 2015, published 2018).

Data set [1] has as its target T1, human DGAT2 (Homo sapiens, UniProt Q96PD7).
T1 sequence (Q96PD7 1-388): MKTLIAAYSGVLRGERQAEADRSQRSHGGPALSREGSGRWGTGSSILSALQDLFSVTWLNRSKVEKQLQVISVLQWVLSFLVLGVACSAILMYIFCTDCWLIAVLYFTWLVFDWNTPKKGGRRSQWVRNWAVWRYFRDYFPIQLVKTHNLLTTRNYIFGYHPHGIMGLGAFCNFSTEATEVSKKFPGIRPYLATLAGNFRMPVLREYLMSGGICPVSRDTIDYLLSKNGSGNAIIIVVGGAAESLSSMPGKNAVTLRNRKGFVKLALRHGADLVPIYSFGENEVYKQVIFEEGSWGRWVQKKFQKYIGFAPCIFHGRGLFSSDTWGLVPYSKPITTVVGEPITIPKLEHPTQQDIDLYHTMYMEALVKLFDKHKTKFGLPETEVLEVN
Description: Diacylglycerol Acyltransferase 2 (DGAT2) Cell-Based Assay (HepG2). The note with it: geometric mean; HepG2 cells, incorporation of 13C18-oleate into triolein normalized to POPC; read-out: IC50 (nM) mean ± SD, (n) = number of experiments. Further details: This assay uses human hepatoma cell-line, HepG2, as a source of acyltransferase activity; endogenous in cells; host or cells: HepG2. The procedure: The inhibitory activity of compounds against human DGAT2 in a cell environment is evaluated in this assay. This assay uses human hepatoma cell-line, HepG2, as a source of acyltransferase activity.
HepG2 cell line is a commonly used model for metabolic reactions that occur in human hepatocytes in vivo. Synthesis of triglyceride in this cell line is followed by measuring incorporation of isotopically labeled oleate into triolein (a triglyceride with 3 oleoyl moieties).
Dispense the HepG2 cells into a 96-well microplate, which has been previously coated with Poly-D-lysine, in an amount of 50,000 cells/well in 100 μL Minimal Essential Media (MEM) with 10% Fetal Bovine Serum (FBS). Incubate the cells for 16 hr at 37° C. Replace the cell culture medium with MEM containing 2% Bovine Serum Albumin. Dissolve the test compound in 0.5% DMSO and prepare serial dilutions in half-log increments. Add the serially diluted test compound into separate wells. Incubate for 0.5 hr at 37° C. Thereafter replace the cell culture medium with a medium of the same composition, but which includes 50 μM ^13C18-oleate and 300 μM hydropropyl-β-cyclodextrine. Incubate for an additional 4 hr at 37° C. Discard the cell culture medium by flipping the microplate over thereby draining the wells and then soaking up any residual media from the wells with a paper towel. Dry the microplate at ambient temperature (˜21° C.) for 10 min. Add aliquots of 125 μL of solvent (isopropyl alcohol:tetrahydrofuran:methanol:chloroform, in a ratio of 90:10:2.5:2.5 v/v), an internal standard for phosphatidylcholine (PC), and an internal standard for triacylglycerol (TG) to each well. Seal and shake the plate for 30 min at ambient temperature. Transfer 100 μL aliquots of the upper phase of each well into a wells of a deep-well plate (2 mL per well). Analyze the contents of the wells using mass-spectrometry analysis. Measure both triolein with a single ^13C18-oleate moiety and POPC using liquid chromatography/mass spectroscopy method (LC/MS). The degree of incorporation of a single ^13C18-oleate moiety into triolein, normalized to the concentration of 1-palmitoyl-2-oleoyl-phosphatidylcholine (POPC) is used as a measure of DGAT2 activity.
Determine the IC50 for each compound, using a 4 parameter logistic curve fit.

In data set [2] the target is T1, human DGAT2. Description: Diacylglycerol Acyltransferase 2 (DGAT2) Biochemical Assay. The note with it: geometric mean; recombinant human DGAT2 with FLAG tag, 1 hr at RT, 14C oleoyl-CoA; read-out: IC50 (nM), ± SD, (n) = number of experiments. How it is done:
The in vitro inhibitory activity of compounds against human DGAT2 is evaluated in this assay. The assay uses recombinant human DGAT2 with a FLAG tag at the amino terminus, expressed in genetically engineered insect SF9 cells, and purified through affinity chromatography.
DGAT2 catalyzes transfer of an acyl moiety from acyl-Coenzyme A onto diacylglycerol, to form triacylglycerol. In this particular embodiment of the assay oleate is used as the acyl moiety that is transferred. To facilitate miscibility of all lipid components, all lipids used in the assay contain oleyl moiety as the only acyl group.
Prior to starting the assay prepare a mixture of dioleoyl glycerol (DOG) and dioleoyl phosphatidylcholine (DOPC) at 3:7 molar ratio. Mix appropriate amount of DOPC and DOG dissolved in chloroform in a borosilicate glass test tube. Evaporate the solvent under stream of argon to form a film of lipid. Subsequently, place the test-tube under vacuum (<1 Torr) for 2 hrs to remove residual solvent. Add appropriate amount of buffer containing TrisHCl (pH 7.5, 150 mM), and sucrose (250 mM) to achieve 20 mM concentration of total lipid. Assure complete suspension of the lipid film by vigorous vortexing. Sonicate the contents of the tube in a water bath sonicator under standing wave conditions until the suspension turns from turbid to translucent, to assure conversion of liposomes into small unilamellar vesicles (SUVs)
Prepare the test compound by dissolving it and serially diluting in half-log increments in DMSO. For each concentration, perform 10-fold step dilution of compound solution in DMSO into buffer containing TrisHCl (pH 7.5, 150 mM), and sucrose (250 mM).
Mix SUV suspensions and compound solution with other components of the assay to achieve the following concentration of individual ingredients: TrisHCl (pH 7.5, 150 mM), sucrose (250 mM), MgCl2 (5 mM,), dithiothreitol (DTT) (0.5 mM), oleoyl coenzyme A (oleoyl-CoA) (12 μM), 1-^14C oleoyl coenzyme A (oleyl-CoA-^14C) (8 μM), dioleoyl glycerol (DOG) (0.6 mM), and dioleoyl phosphatidylcholine (DOPC) (1.4 mM), DGAT2 protein (0.5 nM), DMSO (1%, v/v), with test compound concentration within a 1 nM to 100 μM range, in 30 μl total volume. Incubate the reaction for 1 hr at RT (approximately 21° C.) in individual wells of a 384-well plate. After 1 hr, stop the reaction by adding 23 μl stop solution containing a mixture of isopropanol:EtOH:heptane:DI water: 1 N NaOH (59:12.5:15:11:2.5, by volume). Add 42 μL Microscint E and then incubate mixture overnight to extract the triglyceride into the organic solvent layer containing scintillant. Measure the radioactivity using a Perkin-Elmer TopCount instrument. […] Calculate the degree of inhibition of DGAT2 by measuring the radioactivity at 10 different concentrations for each compound. […]

The test system of data set [3] is LDL-c, VLDL-c and TG serum concentrations. Nature of the data set: In Vivo Efficacy Model: LDL-c, VLDL-c and TG in LDL receptor-deficient mice. The note with it: 30 mg/kg bid, fourteen days, oral gavage, vs control group. The source says:
The compounds described herein can be evaluated in an in vivo efficacy model. This assay measures the potency of compounds by measuring the reduction in low density lipoprotein cholesterol (LDL-c), very low density lipoprotein cholesterol (VLDL-c), and triglycerides (TG). Male, LDL receptor-deficient mice (29 weeks old, each approximately 30 g in weight) are used in this assay.
Feed the mice a standard mouse chow diet for two weeks prior to dosing. Prepare a test solution for oral gavage by suspend the compounds in acacia at 0.3, 1, and 3 mg/mL. Separate the mice into a test group and a control group. Thereafter at the first day of the third week dose the mice in the test group with the test solution for fourteen days, BID. Similarly dose the mice in the control group with just the vehicle without any of the test compound. Four hours after the last dose euthanize the mice with CO2. Immediately collect the blood via cardiac puncture. Isolate the serum to measure serum triglycerides as well as cholesterol in individual lipoprotein fractions. Separate the lipoprotein fractions by known HPLC methods. Determine the cholesterol concentration associated with each lipoprotein fraction by a colorimetric method (Roche Cholesterol/HP Reagent 11875540), using isolated lipoprotein fractions with known cholesterol concentration as standards. Results obtained at the highest dose, can be expressed as the percentage of change in comparison of the LDL-c, VLDL-c and TG serum concentrations of mice in the test group to those of mice n the control group.
The results for the compound of Example 24 at 30 mg/kg bid are listed below in Table 21.

For a further data set, the system named is plasma triglycerides. Nature of the data set: In Vivo Pharmacodynamic Assay: reduction in plasma triglycerides in mice. The note with it: Mus musculus, po; male C57BL6 mice, gavage, with 3 mg/kg DGAT1 inhibitor and tyloxapol; reduction in plasma triglycerides vs control; read-out: ED50 (mg/kg) SD. How it is done: This assay measures the potency of compounds by measuring the reduction in plasma triglycerides in mice treated with the test compounds compared to control animals that are treated only with the vehicle solution. Male, C57BL6 mice (10-11 weeks old, each approximately 22 g in weight) are used in this assay.
Triglycerides synthesized in the liver are secreted into circulation as a component of the Very Low Density Lipoprotein (VLDL). To prevent degradation of triglycerides in circulation by the Lipoprotein Lipase (LPL), this assay uses IV injection of a detergent, tyloxapol, which inhibits activity of LPL. Since another enzyme, DGAT1, participates in the synthesis of liver triglyceride, a saturating dose of a DGAT1 inhibitor (sodium {trans-4-[4-(4-amino-7,7-dimethyl-7H-pyrimido[4,5-b][1,4]oxazin-6-yl)phenyl]cyclohexyl}acetate, IUPAC ACDLABS naming convention, see Dow et al. Bioorg. & Med. Chem., (2011) 21(20), 6122-6128) is also used in this assay. […]
Collect the blood via cardiac puncture into tube containing the anti-coagulant EDTA. […] Freeze the plasma samples on dry ice until they are to be analyzed. […] Reduction in total triglycerides in the test mice is calculated relative to the concentration of triglycerides in the control mice.

The conditions of data set [4]: therapy with lomitapide; cited from earlier work.

One may read the IC50 as the concentration that gives 50% inhibition. Turning to `CCc1cnc(NCc2ccnc(Oc3ccc(CS(N)(=O)=O)cc3F)c2)nc1` [Example 7, [4-[[4-[[(5-ethylpyrimidin-2-yl)amino]methyl]-2-pyridyl]oxy]-3-fluoro-phenyl]methanesulfonamide], the IC50 worked out at 36 ± 1 nM at human DGAT2 [1] and 27 ± 15 nM on human DGAT2 [2].

Consider `CNS(=O)(=O)Cc1ccc(Oc2cc(CNc3ncc(Cl)cn3)nc(C(F)(F)F)n2)cc1` [Example 10, 1-[4-[6-[[(5-Chloropyrimidin-2-yl)amino]methyl]-2-(trifluoromethyl)pyrimidin-4-yl]oxyphenyl]-N-methyl-methanesulfonamide], for which the IC50 at human DGAT2 [1] was 17 ± 1 nM; on human DGAT2 [2], 52 ± 27 nM.

In the case of `CN1CCN(c2nc(CNc3ncc(Cl)cn3)cc(Oc3ccc(CS(N)(=O)=O)cc3)n2)CC1` [Example 24, [4-[6-[[(5-Chloropyrimidin-2-yl)amino]methyl]-2-(4-methylpiperazin-1-yl)pyrimidin-4-yl]oxyphenyl]methanesulfonamide], in data set [3], the LDL-c % change was −61%, the Triglycerides % change is recorded as −56% and the VLDL-c % change is on record as −74%. For the same compound, the IC50 on human DGAT2 [1] was 9 ± 6 nM. In the data set with plasma triglycerides, the ED50 stood at 0.8 ± 0.09 mg/kg. In addition, the IC50 at human DGAT2 [2] amounted to 579 ± 169 nM.

Turning to `CCc1cnc(NCc2cc(Oc3ccc(CCNS(C)(=O)=O)cc3)nc(N)n2)nc1` [Example 57, N-[2-[4-[2-Amino-6-[[(5-ethylpyrimidin-2-yl)amino]methyl]pyrimidin-4-yl]oxyphenyl]ethyl]methanesulfonamide], the IC50 came out at 53 nM on human DGAT2 [1] and 103 ± 51 nM on human DGAT2 [2]. Further, in the data set with plasma triglycerides, the ED50 was found to be 0.23 ± 0.03 mg/kg.

As for `O=C(NC1CCN(CCCCC2(C(=O)NCC(F)(F)F)c3ccccc3-c3ccccc32)CC1)c1ccccc1-c1ccc(C(F)(F)F)cc1` [lomitapide], the “increase in the liver fat content” value in data set [4] is on record as 8 fold.
